According to US20130137111A1, “DETECTION METHOD OF NOVEL RET FUSION” (Astellas Pharma Inc., priority 2010, published 2013):

Tests used:
[1] = test system: FLAG-KIF5B-RETv1S/NIH3T3 cells; experiment: Anchorage-independent cell growth inhibition in spheroid plate (CellTiter-Glo); type: cell-based; conditions: Mus musculus, 120 h, final concentration 1.1 μM, 96-well spheroid plate, cultured 5 days, DMSO = 0%, medium only = 100%, read-out: growth inhibition rate (%)
Experimental: The measurement (colony method or the like) of anchorage-independent cell growth is known to be a system for examining the anticancer action (pharmacological effect) of a compound (“Clinical Oncology” 2nd edition, Japanese Journal of Cancer & Chemotherapy). As a method that measures the growth of non-adherent cells unlike the colony method, there is a method using a spheroid plate as described above.
In addition, a plate to which only a medium was added was prepared as a […]. […] As a […], DMSO as solvent of the compound was added thereto at the same concentration (0.1%) as the compound. Thereafter, the cells were cultured for 5 days at 37° C. in the presence of 5% CO2, and the cell counting reagent (CellTiter-Gio™ Luminescent Cell Viability Assay; Promega Corporation) was added thereto, followed by stirring for 20 minutes. Thereafter, the cells were measured using a luminescence measurement instrument (Envision; PerkinElmer Inc.). The values of positive control and negative control were regarded as 100% inhibition value and 0% inhibition value respectively to calculate the growth inhibition rate (%) of the respective compounds.

[2] = target: T1, KIF5B-RET fusion polypeptide v1S (Homo sapiens, UniProt P07949); experiment: cell-based; conditions: NIH3T3, read-out: phosphorylation inhibition rate
T1 sequence (P07949 with tags, fused parts or gaps isoform P07949-2): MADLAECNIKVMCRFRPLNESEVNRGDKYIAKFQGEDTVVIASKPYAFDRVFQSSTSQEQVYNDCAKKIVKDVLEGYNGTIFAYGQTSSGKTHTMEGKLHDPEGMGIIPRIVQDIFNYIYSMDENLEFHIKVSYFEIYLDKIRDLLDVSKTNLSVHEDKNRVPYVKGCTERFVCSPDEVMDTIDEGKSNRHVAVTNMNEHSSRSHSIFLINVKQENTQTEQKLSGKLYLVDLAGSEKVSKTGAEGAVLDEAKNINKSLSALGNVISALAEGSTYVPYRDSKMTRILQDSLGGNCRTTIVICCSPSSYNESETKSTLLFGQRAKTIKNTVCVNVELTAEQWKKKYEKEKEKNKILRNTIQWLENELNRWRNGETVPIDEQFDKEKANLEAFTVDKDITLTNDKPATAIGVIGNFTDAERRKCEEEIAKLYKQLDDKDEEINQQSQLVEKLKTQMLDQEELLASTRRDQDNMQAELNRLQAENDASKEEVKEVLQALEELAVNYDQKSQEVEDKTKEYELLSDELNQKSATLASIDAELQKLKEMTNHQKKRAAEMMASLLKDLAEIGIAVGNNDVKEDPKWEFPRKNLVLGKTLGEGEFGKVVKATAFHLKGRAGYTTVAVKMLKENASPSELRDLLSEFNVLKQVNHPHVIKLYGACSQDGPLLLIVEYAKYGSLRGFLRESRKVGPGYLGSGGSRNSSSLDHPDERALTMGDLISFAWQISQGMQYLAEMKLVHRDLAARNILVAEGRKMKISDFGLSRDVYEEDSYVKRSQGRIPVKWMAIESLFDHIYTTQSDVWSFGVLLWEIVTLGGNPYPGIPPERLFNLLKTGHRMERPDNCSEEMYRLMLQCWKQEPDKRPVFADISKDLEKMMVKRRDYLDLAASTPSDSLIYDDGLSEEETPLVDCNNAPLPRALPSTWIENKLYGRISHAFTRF

inhibition at 1 µM [2] [%]	SMILES	inhibition at 1.1 µM [1] [%]
	COc1cc2c(Nc3ccc(Br)cc3F)ncnc2cc1OCC1CCN(C)CC1 [Vandetanib]	83
57	CCN(CC)CCNC(=O)c1c(C)[nH]c(/C=C2\C(=O)Nc3ccc(F)cc32)c1C [Sunitinib]	77
	CNC(=O)c1cc(Oc2ccc(NC(=O)Nc3ccc(Cl)c(C(F)(F)F)c3)cc2)ccn1 [Sorafenib]	96
